From patent publication US9328099B2, “Cyanomethylpyrazole carboxamides as janus kinase inhibitors” (Merck Sharp & Dohme Corp., priority 2011, dated 2016)
Read-outs that look alike come from different tables or passages of the source.

Assays:
JAK2 = JAK2 (Homo sapiens (Human), UniProt O60674); assay: Jak Biochemical HTRF Assay, JAK2; details: HTRF biochemical assay, GST-tagged catalytic domain; top concentration tested […]
Description: (§1) Jak Biochemical HTRF Assay Protocol
(§2) Subsequent reagent additions employed an Agilent Bravo.

JAK1 = JAK1 (Homo sapiens (Human), UniProt P23458); assay: Jak Biochemical HTRF Assay, JAK1
Sequence of JAK1 (P23458 875-1153): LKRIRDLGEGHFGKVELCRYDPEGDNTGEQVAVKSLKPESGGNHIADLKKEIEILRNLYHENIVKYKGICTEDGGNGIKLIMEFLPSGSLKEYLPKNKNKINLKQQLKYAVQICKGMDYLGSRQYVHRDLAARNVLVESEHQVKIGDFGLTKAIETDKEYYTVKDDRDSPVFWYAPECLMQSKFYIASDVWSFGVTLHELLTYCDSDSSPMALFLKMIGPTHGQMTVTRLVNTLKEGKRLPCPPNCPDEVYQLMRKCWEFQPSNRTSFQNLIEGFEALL
Description: as §1, §2

[1] = HTRF biochemical assay, GST-tagged catalytic domain, top concentration tested […], read-out: JAK1 IC50

Sequence of JAK2 (O60674 849-1124): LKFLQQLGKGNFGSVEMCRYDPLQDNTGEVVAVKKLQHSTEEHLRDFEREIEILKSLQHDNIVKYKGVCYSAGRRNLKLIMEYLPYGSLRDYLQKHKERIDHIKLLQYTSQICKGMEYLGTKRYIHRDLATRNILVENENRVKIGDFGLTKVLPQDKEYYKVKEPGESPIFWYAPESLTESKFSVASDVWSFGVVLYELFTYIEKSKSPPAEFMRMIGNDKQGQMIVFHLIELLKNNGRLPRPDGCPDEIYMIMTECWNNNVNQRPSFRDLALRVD

Row | SMILES | IC50 (JAK2) [nM] | IC50 (JAK1; [1]) [nM] | IC50 (JAK1; JAK1 IC50) [nM]
1 | N#CCC1(n2cc(C(N)=O)c(Nc3ccc(S(=O)(=O)C(F)F)cc3)n2)CCC(NCC(F)(F)F)CC1 (stereo not drawn) [Example 40-85, Cis or trans 1-{1-(cyanomethyl)-4-[(2,2,2-trifluoroethyl)amino]cyclohexyl}-3-({4-[(difluoromethyl)sulfonyl]phenyl}amino)-1H-pyrazole-4-carboxamide] | 0.2 | 0.02 | 
2 | N#CCC1(n2cc(C(N)=O)c(Nc3ccnc(F)c3)n2)CCC(NCC(F)F)CC1 (stereo not drawn) [Example 40-87, Cis or trans 1-{1-(cyanomethyl)-4-[(2,2-difluoroethyl)amino]cyclohexyl}-3-[(2-fluoropyridin-4-yl)amino]-1H-pyrazole-4-carboxamide] | 524 | 13 | 
3 | N#CCC1(n2cc(C(N)=O)c(Nc3ccc(S(=O)(=O)C(F)F)cc3)n2)CCC(Nc2ccccc2)CC1 (stereo not drawn) [Example 40-88, Cis or trans 1-[1-(cyanomethyl)-4-(phenylamino)cyclohexyl]-3-({4-[(difluoromethyl)sulfonyl]phenyl}amino)-1H-pyrazole-4-carboxamide] | > 1500 | 200 | 
4 | N#CCC1(n2cc(C(N)=O)c(Nc3ccc(S(=O)(=O)C(F)F)cc3)n2)CCC(NCC(F)(F)F)CC1 (stereo not drawn) [Example 40-89, Cis or trans 1-{1-(cyanomethyl)-4-[(2,2,2-trifluoroethyl)amino]cyclohexyl}-3-({4-[(difluoromethyl)sulfonyl]phenyl}amino)-1H-pyrazole-4-carboxamide] | 466 | 13 | 
5 | N#CCC1(n2cc(C(N)=O)c(Nc3ccc(F)cc3)n2)CCC(N2Cc3ccccc3C2)CC1 (stereo not drawn) [Example 40-90, Cis or trans 1-[1-(cyanomethyl)-4-(1,3-dihydro-2H-isoindol-2-yl)cyclohexyl]-3-[(4-fluorophenyl)amino]-1H-pyrazole-4-carboxamide] | 84 | 9 | 
6 | N#CCC1(n2cc(C(N)=O)c(Nc3ccc(F)cc3)n2)CCC(NCc2ccccc2)CC1 (stereo not drawn) [Example 40-92, Cis or trans 1-[4-(benzylamino)-1-(cyanomethyl)cyclohexyl]-3-[(4-fluorophenyl)amino]-1H-pyrazole-4-carboxamide] | 0.2 | 0.04 | 
7 | N#CCC1(n2cc(C(N)=O)c(Nc3ccnc(F)c3)n2)CCC(NCC(F)(F)F)CC1 (stereo not drawn) [Example 40-93, Cis or trans 1-{1-(cyanomethyl)-4-[(2,2,2-trifluoroethyl)amino]cyclohexyl}-3-[(2-fluoropyridin-4-yl)amino]-1H-pyrazole-4-carboxamide] | > 1500 | 166 | 
8 | COC1CN(C2CCC(CC#N)(n3cc(C(N)=O)c(Nc4ccnc(F)c4)n3)CC2)C1 (stereo not drawn) [Example 40-94, Cis or trans 1-[1-(cyanomethyl)-4-(3-methoxyazetidin-1-yl)cyclohexyl]-3-[(2-fluoropyridin-4-yl)amino]-1H-pyrazole-4-carboxamide] | > 1500 | 234 | 
9 | N#CCC1(n2cc(C(N)=O)c(Nc3ccnc(F)c3)n2)CCC(NCC(F)(F)F)CC1 (stereo not drawn) [Example 40-95, Cis or trans 1-{1-(cyanomethyl)-4-[(2,2,2-trifluoroethyl)amino]cyclohexyl}-3-[(2-fluoropyridin-4-yl)amino]-1H-pyrazole-4-carboxamide] | 794 | 28 | 
10 | N#CCC1(n2cc(C(N)=O)c(Nc3ccc(F)cc3)n2)CCC(Nc2ccccc2)CC1 (stereo not drawn) [Example 40-96, Cis or trans 1-[1-(cyanomethyl)-4-(phenylamino)cyclohexyl]-3-[(4-fluorophenyl)amino]-1H-pyrazole-4-carboxamide] | 2 | 0.09 | 
11 | N#CCC1(n2cc(C(N)=O)c(Nc3ccc(S(=O)(=O)C(F)F)cc3)n2)CCC(NCC(F)F)CC1 (stereo not drawn) [Example 40-99, Cis or trans 1-{1-(cyanomethyl)-4-[(2,2-difluoroethyl)amino]cyclohexyl}-3-({4-[(difluoromethyl)sulfonyl]phenyl}amino)-1H-pyrazole-4-carboxamide] | > 1500 | 506 | 
12 | N#CCC1(n2cc(C(N)=O)c(Nc3ccc(F)cc3)n2)CCC(N2CC(F)C2)CC1 (stereo not drawn) [Example 40-100, Cis or trans 1-[1-(cyanomethyl)-4-(3-fluoroazetidin-1-yl)cyclohexyl]-3-[(4-fluorophenyl)amino]-1H-pyrazole-4-carboxamide] | 216 | 18 | 
13 | N#CCC1(n2cc(C(N)=O)c(Nc3ccc(S(=O)(=O)C(F)F)cc3)n2)CCC(Nc2ccccc2)CC1 (stereo not drawn) [Example 40-102, Cis or trans 1-[1-(cyanomethyl)-4-(phenylamino)cyclohexyl]-3-({4-[(difluoromethyl)sulfonyl]phenyl}amino)-1H-pyrazole-4-carboxamide] | 1 | 0.05 | 
14 | N#CCC1(n2cc(C(N)=O)c(Nc3ccc(F)cc3)n2)CCC(Nc2ccccc2)CC1 (stereo not drawn) [Example 40-103, Cis or trans 1-[1-(cyanomethyl)-4-(phenylamino)cyclohexyl]-3-[(4-fluorophenyl)amino]-1H-pyrazole-4-carboxamide] | 3 | 0.1 | 
15 | N#CCC1(n2cc(C(N)=O)c(Nc3ccnc(F)c3)n2)CCC(N2CC(F)C2)CC1 (stereo not drawn) [Example 40-104, Cis or trans 1-[1-(cyanomethyl)-4-(3-fluoroazetidin-1-yl)cyclohexyl]-3-[(2-fluoropyridin-4-yl)amino]-1H-pyrazole-4-carboxamide] | 11 | 0.2 | 
16 | N#CCC1(n2cc(C(N)=O)c(Nc3ccnc(F)c3)n2)CCC(NCC(F)F)CC1 (stereo not drawn) [Example 40-106, Cis or trans 1-{1-(cyanomethyl)-4-[(2,2-difluoroethyl)amino]cyclohexyl}-3-[(2-fluoropyridin-4-yl)amino]-1H-pyrazole-4-carboxamide] | 31 |  | 4
17 | N#CC[C@]1(n2cc(C(N)=O)c(Nc3ccc(F)cc3)n2)CC[C@@H](NCc2ccccc2)CC1 [Example 40-108, 1-[cis-4-(benzylamino)-1-(cyanomethyl)cyclohexyl]-3-[(4-fluorophenyl)amino]-1H-pyrazole-4-carboxamide] | 2 | 0.09 | 
18 | N#CC[C@]1(n2cc(C(N)=O)c(Nc3ccnc(F)c3)n2)CC[C@H](NCc2ccc(F)cc2F)CC1 [Example 41-1, Trans 1-(1-(cyanomethyl)-4-((2,4-difluorobenzyl)amino)cyclohexyl)-3-((2-fluoropyridin-4-yl)amino)-1H-pyrazole-4-carboxamide] | 218 | 8 | 
19 | N#CC[C@]1(n2cc(C(N)=O)c(Nc3ccc(S(=O)(=O)C(F)F)cc3)n2)CC[C@H](N)CC1 [Example 41-2] | > 1500 | 86 | 
20 | N#CC[C@]1(n2cc(C(N)=O)c(Nc3ccc(S(=O)(=O)C(F)F)cc3)n2)CC[C@H](N)CC1 [Example 41-3] | 33 | 1 | 
21 | N#CCC1(n2cc(C(N)=O)c(Nc3ccnc(F)c3)n2)CCC(NCc2ccc(F)cc2F)CC1 (stereo not drawn) [Example 41-4, Cis or trans 1-{1-(cyanomethyl)-4-[(2,4-difluorobenzyl)amino]cyclohexyl}-3-[(2-fluoropyridin-4-yl)amino]-1H-pyrazole-4-carboxamide] | 2 | 0.09 | 
22 | N#CCC1(n2cc(C(N)=O)c(Nc3ccnc(F)c3)n2)CCC(NCc2ccc(C#N)cc2)CC1 (stereo not drawn) [Example 41-6, Cis or trans 1-{4-[(4-cyanobenzyl)amino]-1-(cyanomethyl)cyclohexyl}-3-[(2-fluoropyridin-4-yl)amino]-1H-pyrazole-4-carboxamide] | 851 | 23 | 
23 | N#CCC1(n2cc(C(N)=O)c(Nc3ccnc(F)c3)n2)CCC(NCc2ccccc2O)CC1 (stereo not drawn) [Example 41-7, Cis or trans 1-{1-(cyanomethyl)-4-[(2-hydroxybenzyl)amino]cyclohexyl}-3-[(2-fluoropyridin-4-yl)amino]-1H-pyrazole-4-carboxamide] | 468 | 12 | 
24 | N#CCC1(n2cc(C(N)=O)c(Nc3ccnc(F)c3)n2)CCC(NCC2CCCCC2)CC1 (stereo not drawn) [Example 41-8, Trans 1-{1-(cyanomethyl)-4-[(cyclohexylmethyl)amino]cyclohexyl}-3-[(2-fluoropyridin-4-yl)amino]-1H-pyrazole-4-carboxamide] | 153 | 0.8 | 
25 | N#CCC1(n2cc(C(N)=O)c(Nc3ccnc(F)c3)n2)CCC(NCc2ccc(Cl)cc2)CC1 (stereo not drawn) [Example 41-9, Cis or trans 1-{4-[(4-chlorobenzyl)amino]-1-(cyanomethyl)cyclohexyl}-3-[(2-fluoropyridin-4-yl)amino]-1H-pyrazole-4-carboxamide] | 440 | 15 | 
26 | N#CCC1(n2cc(C(N)=O)c(Nc3ccnc(F)c3)n2)CCC(NCc2ccccc2Cl)CC1 (stereo not drawn) [Example 41-10, Cis or trans 1-{4-[(2-chlorobenzyl)amino]-1-(cyanomethyl)cyclohexyl}-3-[(2-fluoropyridin-4-yl)amino]-1H-pyrazole-4-carboxamide] | 2 | 0.03 | 
27 | N#CCC1(n2cc(C(N)=O)c(Nc3ccnc(F)c3)n2)CCC(NCc2ccccc2F)CC1 (stereo not drawn) [Example 41-11, Cis or trans 1-{1-(cyanomethyl)-4-[(2-fluorobenzyl)amino]cyclohexyl}-3-[(2-fluoropyridin-4-yl)amino]-1H-pyrazole-4-carboxamide] | 2 | 0.08 | 
28 | N#CCC1(n2cc(C(N)=O)c(Nc3ccnc(F)c3)n2)CCC(NCc2ccc(F)cc2)CC1 (stereo not drawn) [Example 41-12, Cis or trans 1-{1-(cyanomethyl)-4-[(4-fluorobenzyl)amino]cyclohexyl}-3-[(2-fluoropyridin-4-yl)amino]-1H-pyrazole-4-carboxamide] | 9 | 0.2 | 
29 | N#CCC1(n2cc(C(N)=O)c(Nc3ccnc(F)c3)n2)CCC(NCc2ccncc2)CC1 (stereo not drawn) [Example 41-13, Cis or trans 1-{1-(cyanomethyl)-4-[(pyridin-4-ylmethyl)amino]cyclohexyl}-3-[(2-fluoropyridin-4-yl)amino]-1H-pyrazole-4-carboxamide] | 1000 | 86 | 
